Read-outs that look alike come from different tables or passages of the source.
What was measured:
[1] = test system: human lung cancer strain NCI-H441;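 also: cell proliferation inhibition after four days measured by CellTiter-Glo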
[2] = biological target: GDP-bound KRAS wild-type protein (Homo sapiens, UniProt P01116); assay: Binding to KRAS by surface plasmon resonance (SPR), Single Cycle Kinetics
[3] = biological target: GDP-bound HRAS wild-type protein (Homo sapiens, UniProt P01112); assay: Binding to HRAS by surface plasmon resonance (SPR), Single Cycle Kinetics; settings: for HRAS/KRAS (ratio of KD value for HRAS to KD value for KRAS): GDP-bound HRAS wild-type protein vs GDP-bound KRAS wild-type protein
GDP-bound HRAS wild-type protein, sequence (P01112 whole entry): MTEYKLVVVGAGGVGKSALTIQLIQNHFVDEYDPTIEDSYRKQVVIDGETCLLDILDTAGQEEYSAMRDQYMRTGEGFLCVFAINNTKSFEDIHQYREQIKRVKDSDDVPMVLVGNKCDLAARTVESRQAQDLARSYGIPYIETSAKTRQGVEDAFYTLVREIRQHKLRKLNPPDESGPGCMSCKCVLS

[4] = biological target: GDP-bound NRAS wild-type protein (Homo sapiens, UniProt P01111); assay: Binding to NRAS by surface plasmon resonance (SPR), Single Cycle Kinetics; settings: for NRAS/KRAS (ratio of KD value for NRAS to KD value for KRAS): GDP-bound NRAS wild-type protein vs GDP-bound KRAS wild-type protein
GDP-bound NRAS wild-type protein, sequence (P01111 whole entry): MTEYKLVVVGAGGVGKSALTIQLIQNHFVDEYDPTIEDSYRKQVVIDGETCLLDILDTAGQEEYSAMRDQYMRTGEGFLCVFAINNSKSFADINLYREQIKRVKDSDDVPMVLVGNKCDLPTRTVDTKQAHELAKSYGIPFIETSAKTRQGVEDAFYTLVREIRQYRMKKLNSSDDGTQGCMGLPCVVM

[5] = SPR, Single Cycle Kinetics, GDP-bound KRAS wild-type protein, read-out: KRAS KD
[6] = SPR, Single Cycle Kinetics, 1:1 binding model, GDP-bound KRAS wild-type protein, read-out: KRAS KD

GDP-bound KRAS wild-type protein, sequence (P01116 whole entry): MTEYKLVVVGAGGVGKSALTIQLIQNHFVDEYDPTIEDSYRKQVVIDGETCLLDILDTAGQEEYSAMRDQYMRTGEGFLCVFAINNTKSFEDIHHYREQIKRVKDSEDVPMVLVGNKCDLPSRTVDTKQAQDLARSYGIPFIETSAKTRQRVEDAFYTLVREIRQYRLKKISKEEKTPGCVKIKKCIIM

Row | Structure (SMILES) | IC50 [1] [nM] | Kd [2, 5] [nM] | HRAS/KRAS (ratio of KD value for HRAS to KD value for KRAS) ([3]; SPR) | NRAS/KRAS (ratio of KD value for NRAS to KD value for KRAS) ([4]; SPR) | Kd [2, 6] [nM] | HRAS/KRAS (ratio of KD value for HRAS to KD value for KRAS) ([3]; SPR, KD ratio class) | NRAS/KRAS (ratio of KD value for NRAS to KD value for KRAS) ([4]; SPR, KD ratio class) | also measured
1 | C#CCN1CC(=O)N(C)[C@H]2C/C=C\CCN(C2=O)[C@@H](Cc2ccc(C)cc2)C(=O)N(C)CC(=O)N[C@@H](CCc2ccc(C(F)(F)F)c(Cl)c2)C(=O)N2C[C@H](OCC)C[C@H]2C(=O)NC2(CC(C)(C)C2)C(=O)N(C)[C@@H](C2CCCC2)C(=O)N(C)[C@H](C(=O)N(C)C)CC(=O)N(C)[C@@H](CCC)C(=O)N[C@@H](CC(C)C)C1=O [PP2526] | 54.5 |  |  |  |  |  |  | Kd ([2]; SPR Single Cycle Kinetics, GDP-bound KRAS wild-type protein, 1:1 binding model, read-out: KRAS KD): 4 nM; HRAS/KRAS (ratio of KD value with respect to GDP-bound HRAS wild-type protein to KD value with respect to KRAS) ([3]; SPR KD ratio HRAS/KRAS, class symbols): B (a compound having 3 or more and less than 10 is denoted as B); NRAS/KRAS (ratio of KD value with respect to GDP-bound NRAS wild-type protein to KD value with respect to KRAS) ([4]; SPR KD ratio NRAS/KRAS, class symbols): A (a compound having 10 or more and less than 20 is denoted as A)
2 | CCC[C@H]1C(=O)N[C@@H]([C@@H](C)CC)C(=O)N2CCC[C@H]2C(=O)N(C)[C@H]2C/C=C\CCN(C2=O)[C@@H](Cc2ccc(C(F)(F)F)cc2)C(=O)N(C)CC(=O)N[C@@H](CCc2ccc(C(F)(F)F)c(OC)c2)C(=O)N2C[C@H](OCC)C[C@H]2C(=O)N(C)C2(CCC2)C(=O)N(C)[C@@H](C2CCCC2)C(=O)N(C)[C@H](C(=O)N2CCCC2)CC(=O)N1C [PP3101] |  | 0.27 | A (a compound having 10 or more and less than 20 is denoted as A) | A (a compound having 10 or more and less than 20 is denoted as A) |  |  |  | IC50 ([1]; read-out: NCI-H441 cell proliferation inhibitory activity, 50% proliferation inhibitory concentration (IC50 value), NCI-H441, four days, CellTiter-Glo): 4.9 nM; Kd ([2]; SPR, Single Cycle Kinetics, 1:1 binding model, read-out: KD value with respect to GDP-bound KRAS wild-type protein): 0.27 nM; ratio of the KD value with respect to GDP-bound HRAS wild-type protein to the KD value with respect to KRAS ([3]; SPR, KD(HRAS)/KD(KRAS)): A (a compound having 10 or more and less than 20 is denoted as A); ratio of the KD value with respect to GDP-bound NRAS wild-type protein to the KD value with respect to KRAS ([4]; SPR, KD(NRAS)/KD(KRAS)): A (a compound having 10 or more and less than 20 is denoted as A)
3 | CCO[C@@H]1C[C@H]2C(=O)NC3(CCC3)C(=O)N(C)[C@@H](C3CCCC3)C(=O)N(C)[C@H](C(=O)N3CCOCC3)CC(=O)N(C)[C@@H](CC)C(=O)N[C@@H]([C@@H](C)CC)C(=O)N3CC[C@H]3C(=O)N(C)[C@H]3C[C@@H](C)[C@@H](C)CN(C3=O)[C@@H](Cc3ccc(C(F)(F)F)cc3)C(=O)N(C)CC(=O)N[C@@H](CCc3ccc(C(F)(F)F)c(Cl)c3)C(=O)N2C1 [PP1357] | 5.4 |  |  |  | 0.13 | B (a compound having 3 or more and less than 10 is denoted as B) | A (a compound having 10 or more and less than 20 is denoted as A) | 
4 | CCC[C@H]1C(=O)N[C@@H]([C@@H](C)CC)C(=O)N(C2CC2)CC(=O)N(C)[C@H]2C/C=C\CCN(C2=O)[C@@H](CC2CCCCC2)C(=O)N(C)CC(=O)N[C@@H](CCc2ccc(C(F)(F)F)c(OC)c2)C(=O)N2C[C@H](OCC)C[C@H]2C(=O)N(C)C2(CCC2)C(=O)N(C)[C@@H](C(CC)CC)C(=O)N(C)[C@H](C(=O)N(C)C)CC(=O)N1C [PP2337] | 33.9 | 3.2 | A (a compound having 10 or more and less than 20 is denoted as A) | A (a compound having 10 or more and less than 20 is denoted as A) |  |  |  | 
5 | CCO[C@@H]1C[C@H]2C(=O)NC3(CCC3)C(=O)N(C)[C@@H](C(CC)CC)C(=O)N(C)[C@H](C(=O)N(C)C)CC(=O)N(C)[C@@H](COC)C(=O)N[C@@H]([C@@H](C)CC)C(=O)N(C)CC(=O)N(C)[C@H]3C/C=C\CCN(C3=O)[C@@H](Cc3ccc(C(F)(F)F)cc3)C(=O)N(C)CC(=O)N[C@@H](CCc3ccc(C(F)(F)F)c(OC)c3)C(=O)N2C1 [PP1213] | 40.4 |  |  |  | 0.18 | A (a compound having 10 or more and less than 20 is denoted as A) | AA (a compound having 20 or more is denoted as AA) | 
6 | C#CCN1CC(=O)N(C)[C@H]2C/C=C\CCN(C2=O)[C@@H](Cc2ccc(C)cc2)C(=O)N(C)CC(=O)N[C@@H](CCc2ccc(C(F)(F)F)c(OC)c2)C(=O)N2C[C@H](OCC)C[C@H]2C(=O)NC2(CC(C)(C)C2)C(=O)N(C)[C@@H](C2CCCC2)C(=O)N(C)[C@H](C(=O)N(C)C)CC(=O)N(C)[C@@H](CCC)C(=O)N[C@@H](CC(C)C)C1=O [PP2514] | 86.8 | 2.4 | B (a compound having 3 or more and less than 10 is denoted as B) | A (a compound having 10 or more and less than 20 is denoted as A) |  |  |  | 
7 | CC[C@H](C)[C@@H]1NC(=O)[C@H](COC)N(C)C(=O)C[C@@H](C(=O)N(C)C)N(C)C(=O)[C@H](C2CCCC2)N(C)C(=O)C2(CC(C)(C)C2)NC(=O)[C@@H]2C[C@@H](OC(C)C)CN2C(=O)[C@H](CCc2ccc(Cl)c(Cl)c2)NC(=O)CN(C)C(=O)[C@H](CC2CCCCC2)N2CC/C=C\C[C@@H](C2=O)N(C)C(=O)CN(C2CC2)C1=O [PP2513] | 303 | 2.6 | A (a compound having 10 or more and less than 20 is denoted as A) | A (a compound having 10 or more and less than 20 is denoted as A) |  |  |  | 
8 | CCO[C@@H]1C[C@H]2C(=O)NC3(CCCC3)C(=O)N(C)[C@@H](C3CCCC3)C(=O)N(C)[C@H](C(=O)N(C)C)CC(=O)N(C)[C@@H](C)C(=O)N[C@@H]([C@@H](C)CC)C(=O)N(C)CC(=O)N(C)[C@H]3C/C=C\CCN(C3=O)[C@@H](CC3CCC(F)(F)CC3)C(=O)N(C)CC(=O)N[C@@H](CCc3cc(F)c(C(F)(F)F)c(F)c3)C(=O)N2C1 [PP1456, (2S,8S,12R,14S,20S,23S,27S,30S,36S,38Z)-20-cyclopentyl-2-[(4,4-difluorocyclohexyl)methyl]-8-[2-[3,5-difluoro-4-(trifluoromethyl)phenyl]ethyl]-12-ethoxy-N,N,4,19,22,26,27,32,35-nonamethyl-30-[(1S)-1-methylpropyl]-3,6,9,15,18,21,25,28,31,34,42-undecaoxo-spiro[1,4,7,10,16,19,22,26,29,32,35-undecazatricyclo[34.5.1.0^10,14]dotetracont-38-ene-17,1′-cyclopentane]-23-carboxamide] | 90 |  |  |  | 0.12 | A (a compound having 10 or more and less than 20 is denoted as A) | A (a compound having 10 or more and less than 20 is denoted as A) | 
9 | CCO[C@@H]1C[C@H]2C(=O)NC3(CCC3)C(=O)N(C)[C@@H](C3CCCC3)C(=O)N(C)[C@H](C(=O)N(C)C)CC(=O)N(C)[C@@H](CC3CC3)C(=O)N[C@@H]([C@@H](C)CC)C(=O)N(C)CC(=O)N(C)[C@H]3C/C=C\CCN(C3=O)[C@@H](Cc3ccc(F)cc3)C(=O)N(C)CC(=O)N[C@@H](CCc3ccc4sccc4c3)C(=O)N2C1 [PP1426] | 475 |  |  |  | 1 | B (a compound having 3 or more and less than 10 is denoted as B) | A (a compound having 10 or more and less than 20 is denoted as A) | 
10 | CCO[C@@H]1C[C@H]2C(=O)NC3(CC(C)(C)C3)C(=O)N(C)[C@@H](C3CCCC3)C(=O)N(C)[C@H](C(=O)N(C)CC)CC(=O)N(C)[C@@H](COC)C(=O)N[C@@H]([C@@H](C)CC)C(=O)N(C)CC(=O)N(C)[C@H]3C/C=C\CCN(C3=O)[C@@H](Cc3ccc(C)cc3)C(=O)N(C)CC(=O)N[C@@H](CCc3ccc(C(F)(F)F)c(OC)c3)C(=O)N2C1 [PP2392] | 25.4 | 0.11 | A (a compound having 10 or more and less than 20 is denoted as A) | A (a compound having 10 or more and less than 20 is denoted as A) |  |  |  | 
11 | CCO[C@@H]1C[C@H]2C(=O)NC3(CCC3)C(=O)N(C)[C@@H](C(CC)CC)C(=O)N(C)[C@H](C(=O)N(C)C)CC(=O)N(C)[C@@H](CC3CC3)C(=O)N[C@@H]([C@@H](C)CC)C(=O)N(C)CC(=O)N(C)[C@H]3C/C=C\CCN(C3=O)[C@@H](Cc3ccc(C(F)(F)F)cc3)C(=O)N(C)CC(=O)N[C@@H](CCc3cc(F)c(Cl)c(F)c3)C(=O)N2C1 [PP1233] | 34.7 |  |  |  | 0.66 | A (a compound having 10 or more and less than 20 is denoted as A) | AA (a compound having 20 or more is denoted as AA) | 
12 | CCOC[C@H]1C(=O)N[C@@H]([C@@H](C)OCC)C(=O)N2CCC[C@H]2C(=O)N(C)[C@H]2C/C=C\CCN(C2=O)[C@@H](Cc2ccc(C)cc2)C(=O)N(C)CC(=O)N[C@@H](CCc2ccc(C(F)(F)F)c(OC)c2)C(=O)N2C[C@@H](C)C[C@H]2C(=O)NC2(CC(C)(C)C2)C(=O)N(C)[C@@H](C2CCCC2)C(=O)N(C)[C@H](C(=O)N(C)CC)CC(=O)N1C [PP2433] | 120 | 2.1 | A (a compound having 10 or more and less than 20 is denoted as A) | AA (a compound having 20 or more is denoted as AA) |  |  |  | 
13 | CCO[C@@H]1C[C@H]2C(=O)NC3(CCC3)C(=O)N(C)[C@@H](C3CCCC3)C(=O)N(C)[C@H](C(=O)N(C)C)CC(=O)N(C)[C@@H](CC(C)C)C(=O)N[C@@H]([C@@H](C)CC)C(=O)N(C)CC(=O)N(C)[C@H]3C/C=C\CCN(C3=O)[C@@H](Cc3ccc(F)cc3)C(=O)N(C)CC(=O)N[C@@H](CCc3cc(F)c(Cl)c(F)c3)C(=O)N2C1 [PP1483] | 90.3 |  |  |  | 0.51 | B (a compound having 3 or more and less than 10 is denoted as B) | A (a compound having 10 or more and less than 20 is denoted as A) | 

— patent publication US20240158446A1, “CYCLIC COMPOUND HAVING SELECTIVE INHIBITORY ACTION ON KRAS OVER HRAS AND NRAS” (CHUGAI SEIYAKU KABUSHIKI KAISHA, priority 2021, published 2024)
